Experimental data from publication PMC4305006 (Chemistry & biology, 2014).
Converted amounts (≈) assume the structure as drawn.

Tested on: Mtb BioA over-expression strain (BioA-OE)
Type: cell-based, Mycobacterium tuberculosis

Structure (SMILES): C=C(CCC(=O)O)c1nc2ccccc2s1 [Compound 13, 4-(benzothiazol-2-yl)pentenoic acid]
- MIC90 BioA-OE: 4.7 µM (≈ 1.1 µg/mL)
